The values below come from patent publication US10577373B2, “TYK2 inhibitors and uses thereof” (Nimbus Lakshmi, Inc., priority 2017, dated 2020).

Where two headings read alike, the source gives them in different places.

The test system of assay [1] is IL-12 induced STAT4 phophorylation mediated by Tyk2/JAK2 (heterodimeric complex). The assay is described as follows: IL-12 Induced pSTAT4 in Human PBMC. The format is cell-based. The conditions noted are these: 1.7 ng/mL IL-12. The text has this:
The IL-12 Induced pSTAT4 assay evaluates the inhibition of IL-12 induced STAT4 phophorylation mediated by Tyk2/JAK2 (heterodimeric complex).

In assay [2] the test system is GM-CSF induced STAT5 phosphorylation mediated by the JAK2/JAK2 homdimeric complex. The assay is described as follows: GM-CSF Induced pSTAT5 in Human PBMC.
Source text: Human PBMC are isolated from buffy coat and are stored frozen for assays as needed.
[3] abbreviates: Homo sapiens, PBMC, 20 min, read-out: PBMC_GMCSF_pSTAT5 IC50, human PBMC, GM-CSF 5 ng/mL for 20 minutes, pSTAT5.
[4] abbreviates: Homo sapiens, PBMC, 20 min, read-out: PBMC_GMCSF_pSTAT5 IC50.

In the case of `CCn1cc(Cl)cc(Nc2cc(NC)n3ncc(C(=O)NC4CC4)c3n2)c1=O` [I-133, 5-((5-chloro-1-ethyl-2-oxo-1,2-dihydropyridin-3-yl)amino)-N-cyclopropyl-7-(methylamino)pyrazolo[1,5-a]pyrimidine-3-carboxamide], the IC50 is below 100 nM in assay [1] and above 12.5 µM in assay [2] (setting [3]).
`CNc1cc(Nc2cccn(C3CCCCC3)c2=O)nc2c(C(=O)N[C@@H]3CC[C@H]3O)cnn12` [I-943]: the results for the IC50 in assay [1] and in assay [2] (setting [3]) were below 100 nM and above 50 µM, respectively.
For the compound `[2H]C([2H])([2H])Nc1cc(Nc2cccnc2OC2CC2)nc2c(C(=O)N[C@@H]3C[C@@H]3F)cnn12` (stereo in doubt) [I-375, 5-((2-cyclopropoxypyridin-3-yl)amino)-N-((1R,2S)-2-fluorocyclopropyl)-7-((methyl-d3)amino)pyrazolo[1,5-a]pyrimidine-3-carboxamide], the IC50 is below 100 nM in assay [1] and above 50 µM in assay [2] (setting [3]).
In the case of `CNc1cc(Nc2cccnc2OC(C)C)nc2c(C(=O)NC3CCC3)cnn12` [I-145], the IC50 was 100 to 500 nM in assay [1] and above 50 µM in assay [2] (setting [3]).
As for `CNc1cc(Nc2cccn(-c3cnc(C(C)(C)O)cn3)c2=O)nc2c(C(=O)NC3CCC3)cnn12` [I-95], the IC50 is below 100 nM in assay [1] and above 50 µM in assay [2] (setting [4]).
`CCONC(=O)c1cnn2c(NC)cc(Nc3cccnc3OC)nc12` [I-409, N-ethoxy-5-((2-methoxypyridin-3-yl)amino)-7-(methylamino)pyrazolo[1,5-a]pyrimidine-3-carboxamide]: the values for the IC50 in assay [1] and in assay [2] (setting [3]) were below 100 nM and above 12.5 µM, respectively.
For `CNc1cc(Nc2cccn([C@H]3CCCOC3)c2=O)nc2c(C(=O)NC3CCC3)cnn12` [I-354] the same measures were below 100 nM and above 2.5 µM.
As for `CNc1cc(-c2cn(C3CC3)c3ncccc23)nc2c(C(=O)N[C@@H]3C[C@@H]3F)cnn12` [I-961, 5-(1-cyclopropyl-1H-pyrrolo[2,3-b]pyridin-3-yl)-N-((1R,2S)-2-fluorocyclopropyl)-7-(methylamino)pyrazolo[1,5-a]pyrimidine-3-carboxamide], the results for the IC50 in assay [1] and in assay [2] (setting [3]) were below 100 nM and above 50 µM, respectively.
Turning to `CNc1cc(Nc2cccnc2OC)nc2c(C(=O)NC[C@H](C)CO)cnn12` [I-483], the IC50 was below 100 nM in assay [1] and above 50 µM in assay [2] (setting [3]).
Turning to `CNc1cc(Nc2cc(Cl)cn(C3CCN(C)CC3)c2=O)nc2c(C(=O)N[C@@H]3CC[C@H]3O)cnn12` [I-930], the IC50 in assay [1] was below 100 nM; in assay [2] (setting [3]) it was above 50 µM.
Regarding `CNc1cc(Nc2cc(F)cnc2OC2CC2)nc2c(C(=O)NC3CCC3)cnn12` [I-276], the results for the IC50 in assay [1] and in assay [2] (setting [3]) were below 100 nM and above 50 µM, respectively.
Turning to `CNc1cc(Nc2cc(C)cn(-c3ccn(C)n3)c2=O)nc2c(C(=O)N[C@H]3C[C@H]3F)cnn12` [I-250], the IC50 in assay [1] was below 100 nM; in assay [2] (setting [3]), above 12.5 µM.
As for `CNc1cc(Nc2cccn(-c3ccccn3)c2=O)nc2c(C(=O)NC3CC3)cnn12` [I-680], the results for the IC50 in assay [1] and in assay [2] (setting [3]) were below 100 nM and above 12.5 µM, respectively.
`CNc1cc(-c2cn(C3CC3)c3ncccc23)nc2c(C(=O)N[C@H]3CC[C@H]3O)cnn12` [I-992, 5-(1-cyclopropyl-1H-pyrrolo[2,3-b]pyridin-3-yl)-N-((1S,2R)-2-hydroxycyclobutyl)-7-(methylamino)pyrazolo[1,5-a]pyrimidine-3-carboxamide]: the IC50 in assay [1] is below 100 nM; in assay [2] (setting [3]), above 50 µM.
Regarding `CNc1cc(Nc2cc(Cl)cn([C@H]3CCCN(C)C3)c2=O)nc2c(C(=O)NC3CC3)cnn12` [I-820], the IC50 is below 100 nM in assay [1] and above 12.5 µM in assay [2] (setting [3]).
For `CNc1cc(Nc2cccnc2OC)nc2c(C(=O)NOC(C)(C)C)cnn12` [I-612, N-(tert-butoxy)-5-((2-methoxypyridin-3-yl)amino)-7-(methylamino) pyrazolo[1,5-a]pyrimidine-3-carboxamide], the IC50 in assay [1] was […]; in assay [2] (setting [4]), above 50 µM.
Regarding `CNc1cc(Nc2cc(F)cn(-c3cnn(C)c3)c2=O)nc2c(C(=O)NC3CC3)cnn12` [I-380], the results for the IC50 in assay [1] and in assay [2] (setting [3]) were below 100 nM and above 12.5 µM, respectively.
As to `CNc1cc(Nc2cccn([C@@H]3CCC[C@H](OC)C3)c2=O)nc2c(C(=O)N[C@@H]3CC[C@H]3OC)cnn12` [I-995], the results for the half-maximal inhibitory concentration (IC50) in assay [1] and in assay [2] (setting [3]) were below 100 nM and above 50 µM, respectively.
For `CNc1cc(Nc2cccn(-c3ncc(C)s3)c2=O)nc2c(C(=O)NC3CCC3)cnn12` [I-263] the same measures were below 100 nM and above 2.5 µM.
For the compound `CNc1cc(Nc2cccn(-c3ccc(OC)cn3)c2=O)nc2c(C(=O)N[C@H]3C[C@H]3F)cnn12` [I-265], the IC50 in assay [1] is below 100 nM; in assay [2] (setting [3]), above 12.5 µM.
Turning to `[2H]C([2H])([2H])Oc1ncc(F)cc1Nc1cc(NC)n2ncc(C(=O)NC3CC3)c2n1` [I-284], the figures for the IC50 in assay [1] and in assay [2] (setting [3]) were below 100 nM and above 12.5 µM, respectively.
For `CNc1cc(Nc2cc(C)cnc2OCCOC)nc2c(C(=O)NC3CC3)cnn12` [I-281] the same measures were 100 to 500 nM and above 2.5 µM.
Turning to `CNc1cc(Nc2cc(F)cnc2OC(C)C)nc2c(C(=O)N[C@H]3C[C@H]3F)cnn12` [I-211], the IC50 in assay [1] was 100 to 500 nM; in assay [2] (setting [3]), above 50 µM.
For `CNc1cc(Nc2cccn(-c3cn(C)nc3F)c2=O)nc2c(C(=O)N[C@H]3C[C@H]3F)cnn12` [I-607] the same measures were below 100 nM and above 50 µM.
For the compound `CNc1cc(Nc2cc(F)ccc2F)nc2c(C(=O)NC3CC3)cnn12` [I-3], the figures for the IC50 in assay [1] and in assay [2] (setting [3]) were below 100 nM and above 12.5 µM, respectively.
As for `CNc1cc(Nc2cccn(-c3ccnc(C)n3)c2=O)nc2c(C(=O)N[C@@H]3C[C@@H]3F)cnn12` (stereo in doubt) [I-124, N-((1R,2S)-2-fluorocyclopropyl)-7-(methylamino)-5-((1-(2-methylpyrimidin-4-yl)-2-oxo-1,2-dihydropyridin-3-yl)amino)pyrazolo[1,5-a]pyrimidine-3-carboxamide], the IC50 in assay [1] was below 100 nM; in assay [2] (setting [3]) it was above 12.5 µM.
Take `CNc1cc(Nc2cccn(-c3ncc(C)s3)c2=O)nc2c(C(=O)N[C@H]3C[C@H]3F)cnn12` [I-262]: the IC50 in assay [1] is below 100 nM; in assay [2] (setting [3]) it was above 2.5 µM.
Regarding `CNc1cc(Nc2cccnc2OC2CC2)nc2c(C(=O)NCC3(CO)CC3)cnn12` [I-426], the IC50 in assay [1] is below 100 nM; in assay [2] (setting [3]) it was above 50 µM.
Take `CNc1cc(-c2cn(C(C)C)c3ncc(Cl)cc23)nc2c(C(N)=O)cnn12` [I-272, 5-(5-chloro-1-isopropyl-1H-pyrrolo[2,3-b]pyridin-3-yl)-7-(methylamino) pyrazolo[1,5-a]pyrimidine-3-carboxamide]: the IC50 in assay [1] is below 100 nM; in assay [2] (setting [3]), above 12.5 µM.
For the compound `CNc1cc(Nc2cccc(-c3cn(C)nc3F)n2)nc2c(C(=O)N[C@@H]3C[C@@H]3F)cnn12` [I-860], the values for the 50% inhibitory concentration (IC50) in assay [1] and in assay [2] (setting [3]) were below 100 nM and above 50 µM, respectively.
In the case of `CNc1cc(Nc2cccn([C@H]3CC[C@](C)(OC)CC3)c2=O)nc2c(C(=O)N[C@@H]3CC[C@@H]3O)cnn12` [I-670, N-(2-hydroxycyclobutyl)-5-((1-((1R,4S)-4-methoxy-4-methylcyclohexyl)-2-oxo-1,2-dihydropyridin-3-yl)amino)-7-(methylamino)pyrazolo[1,5-a]pyrimidine-3-carboxamide], the IC50 in assay [1] was below 100 nM; in assay [2] (read-out: PBMC_GMCSF_pSTAT5 IC50, human PBMC, GM-CSF 5 ng/mL for 20 minutes, pSTAT5), above 50 µM.
For `CNc1cc(Nc2cccn([C@H]3CC[C@](C)(OC)CC3)c2=O)nc2c(C(=O)N[C@@H]3CC[C@H]3OC)cnn12` [I-959], the IC50 in assay [1] is below 100 nM; in assay [2] (setting [3]), above 50 µM.
